Consider 2 molecules from patent publication US20230073214A1, “BIOACTIVE RELEASING MEMBRANE FOR ANALYTE SENSOR” (DexCom, Inc., priority 2021, published 2023).

SMILES strings stand for the structures.

A short description of data set [1]: in vitro bioactive release profile of dexamethasone acetate from bioactive releasing membrane 70 (percent cumulative release by HPLC). It counts as physicochemical. Conditions: over a time span of 16-35 days. The protocol:
With reference to FIG. 5A, an exemplary in vitro bioactive release profiles for dexamethasone acetate is shown using exemplary bioactive releasing membrane 70. The percent cumulative release of dexamethasone acetate can be determined using HPLC, for example using a Phenomenex Kinetex 5μ EVO C18 100 Å, 50×3.0 mm column held at 25° C. with a 254 nm UV detector and an elution gradient of A: Water with 0.1% formic acid/B: Acetonitrile with 0.1% formic acid (vol/vol), where the gradient from time 0 to 2 minutes is 90% A/10% B; from 2-5 minutes is 10% A/90% B; and from 5 minutes is 90% A/10% B. Dexamethasone acetate and dexamethasone HPLC standards are prepared at concentrations of about 0.1-20 ug/mL.
With reference to FIG. 5B, experimental data of a release rate of a bioactive agent (dexamethasone acetate) from a bioactive releasing membrane 70 initially or during the first time period being greater than the release rate of the bioactive agent from the bioactive releasing membrane initially or during the second time period and the release rate of the bioactive agent from the bioactive releasing membrane initially or during the second time period is greater than the release rate of the bioactive agent from the bioactive releasing membrane initially or during the third time period is shown. […]

Data set [2] in a line: additional release experiments with dexamethasone salts in different bioactive releasing membrane combinations. Conditions: in a water-soluble cellulosic based polymer. It counts as physicochemical.
Method: Additional experiments were carried out using dexamethasone salts in different bioactive releasing membrane combinations.

As for `CC(=O)OCC(=O)[C@@]1(O)[C@H](C)C[C@H]2[C@@H]3CCC4=CC(=O)C=C[C@]4(C)[C@@]3(F)[C@@H](O)C[C@@]21C` [dexamethasone acetate], the “third release rate: release of the remaining amount” value in data set [1] is on record as “approximately 10%”.
As to `C[C@@H]1C[C@H]2[C@@H]3CCC4=CC(=O)C=C[C@]4(C)[C@@]3(F)[C@@H](O)C[C@]2(C)[C@@]1(O)C(=O)COP(=O)(O)O` [dexamethasone sodium phosphate], in data set [2], the release profile result is on record as “bolus release profile”.
